In one experiment the target is T1, purified human HDAC6 (Homo sapiens, UniProt Q9UBN7).
T1 construct: purchased BPS Bioscience 5006
T1 sequence (Q9UBN7 1-1215): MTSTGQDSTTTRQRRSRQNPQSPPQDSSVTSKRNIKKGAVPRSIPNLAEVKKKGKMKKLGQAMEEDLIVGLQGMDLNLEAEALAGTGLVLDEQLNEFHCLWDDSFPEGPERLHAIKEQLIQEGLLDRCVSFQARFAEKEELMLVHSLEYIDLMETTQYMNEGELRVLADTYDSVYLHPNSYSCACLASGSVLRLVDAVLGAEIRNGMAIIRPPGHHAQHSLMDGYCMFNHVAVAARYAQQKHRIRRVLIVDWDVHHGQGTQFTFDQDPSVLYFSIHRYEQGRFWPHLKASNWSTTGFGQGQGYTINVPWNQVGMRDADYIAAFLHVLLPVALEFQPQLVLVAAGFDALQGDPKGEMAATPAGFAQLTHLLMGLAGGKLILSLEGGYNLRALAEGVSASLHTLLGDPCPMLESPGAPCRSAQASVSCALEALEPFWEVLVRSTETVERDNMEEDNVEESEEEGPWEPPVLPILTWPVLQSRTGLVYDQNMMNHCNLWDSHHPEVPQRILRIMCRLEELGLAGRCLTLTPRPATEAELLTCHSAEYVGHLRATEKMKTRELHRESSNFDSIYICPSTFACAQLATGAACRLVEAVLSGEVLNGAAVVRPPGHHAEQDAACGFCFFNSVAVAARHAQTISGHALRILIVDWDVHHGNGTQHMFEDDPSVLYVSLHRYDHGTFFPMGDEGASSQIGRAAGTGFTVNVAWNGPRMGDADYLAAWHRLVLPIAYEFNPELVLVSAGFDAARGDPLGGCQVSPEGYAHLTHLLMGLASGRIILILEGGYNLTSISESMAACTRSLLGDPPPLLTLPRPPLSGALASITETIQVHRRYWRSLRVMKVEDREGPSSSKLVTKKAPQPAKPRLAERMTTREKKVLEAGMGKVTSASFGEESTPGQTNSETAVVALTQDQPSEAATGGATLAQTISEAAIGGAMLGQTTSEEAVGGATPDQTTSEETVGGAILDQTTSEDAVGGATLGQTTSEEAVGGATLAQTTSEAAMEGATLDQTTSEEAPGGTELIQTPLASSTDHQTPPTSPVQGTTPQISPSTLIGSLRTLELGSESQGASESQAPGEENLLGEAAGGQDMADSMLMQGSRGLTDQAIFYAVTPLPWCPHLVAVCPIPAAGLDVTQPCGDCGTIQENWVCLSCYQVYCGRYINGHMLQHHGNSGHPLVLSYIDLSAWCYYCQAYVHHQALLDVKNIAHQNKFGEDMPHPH
Put plainly: HDAC6 Enzyme Assay. It is filed as biochemical. Particulars: compound concentration 0.37 μM, read-out: Percent Inhibition. The gist of the method: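 Readout is AMC fluorescence (Ex 340 nm, Em 460 nm) after trypsin cleavage of the deacetylated Ac-Arg-Gly-Lys(Ac)-AMC product. Reaction: purified human HDAC6, compound or vehicle, 1 hour, 30° C, quenched by trichostatin A. Single-concentration percent inhibition or IC50 calculated versus DMSO-treated samples.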
Turning to `CC(C)(C)OC(=O)N1CCC(C(CCn2ccc3ccc(C(=O)NO)cc3c2=O)c2ccc(Cl)cc2)CC1` (stereo not drawn) [Compound I-205, tert-butyl 4-{1-(4-chlorophenyl)-3-[7-[(hydroxyamino)carbonyl]-1-oxoisoquinolin-2(1H)-yl]propyl}piperidine-1-carboxylate], the inhibition at 0.37 µM was 89.5%.

As for `CC1(C(=O)Nc2cccc(Cn3ccc4ccc(C(=O)NO)cc4c3=O)c2)CCNCC1` [Compound I-215, N-hydroxy-2-(3-{[(4-methylpiperidin-4-yl)carbonyl]amino}benzyl)-1-oxo-1,2-dihydroisoquinoline-7-carboxamide], the inhibition at 0.37 µM stood at 100%. Consider `CS(=O)(=O)c1cccc(CCn2cnc3ccc(C(=O)NO)cc3c2=O)c1` [Compound I-216, N-hydroxy-3-{2-[3-(methylsulfonyl)phenyl]ethyl}-4-oxo-3,4-dihydroquinazoline-6-carboxamide], for which the inhibition at 0.37 µM came to 85.7%. The same measure, in the same setting: the value for `O=C(NO)c1ccc2ncn(CCc3cccc(-c4ccncc4)c3)c(=O)c2c1` [Compound I-220, N-hydroxy-4-oxo-3-[2-(3-pyridin-4-ylphenyl)ethyl]-3,4-dihydroquinazoline-6-carboxamide] was 98.3%; that for `CC(c1ccccc1C(F)(F)F)n1ccc2ccc(C(=O)NO)cc2c1=O` (stereo not drawn) [Compound I-224, N-hydroxy-1-oxo-2-{1-[2-(trifluoromethyl)phenyl]ethyl}-1,2-dihydroisoquinoline-7-carboxamide] was 96.3%. For `CC(C)(C)C(=O)Nc1ncccc1-c1cccc(Cn2cnc3ccc(C(=O)NO)cc3c2=O)c1` [Compound I-230, 3-(3-{2-[(2,2-dimethylpropanoyl)amino]pyridin-3-yl}benzyl)-N-hydroxy-4-oxo-3,4-dihydroquinazoline-6-carboxamide], the inhibition at 0.37 µM was found to be 92.4%.

The same experiment, now with this note: compound concentration 0.412 μM, read-out: Percent Inhibition.
`O=C(NO)c1ccc2ccn(C3c4ccccc4-c4ccccc43)c(=O)c2c1` [Compound I-201, 2-(9H-fluoren-9-yl)-N-hydroxy-1-oxo-1,2-dihydroisoquinoline-7-carboxamide]: the inhibition at 0.412 µM was found to be 88.8%.

For `COc1cc(Cn2ccc3ccc(C(=O)NO)cc3c2=O)cc(OC)c1` [Compound I-202, 2-(3,5-dimethoxybenzyl)-N-hydroxy-1-oxo-1,2-dihydroisoquinoline-7-carboxamide], the inhibition at 0.412 µM is 96.1%. On to `CCN(CC)c1nc2ccc(C(=O)NO)cc2c(=O)n1C` [Compound I-203, 2-(diethylamino)-N-hydroxy-3-methyl-4-oxo-3,4-dihydroquinazoline-6-carboxamide], for which the inhibition at 0.412 µM is 46.4%. Consider `O=C(NO)c1ccc2ccn(CCOc3ccccc3Cl)c(=O)c2c1` [Compound I-204, 2-[2-(2-chlorophenoxy)ethyl]-N-hydroxy-1-oxo-1,2-dihydroisoquinoline-7-carboxamide], for which the inhibition at 0.412 µM was determined as 98.7%. Turning to `O=C(NO)c1ccc2ccn(Cc3cccc(Cl)c3)c(=O)c2c1` [Compound I-206, 2-(3-chlorobenzyl)-N-hydroxy-1-oxo-1,2-dihydroisoquinoline-7-carboxamide], the inhibition at 0.412 µM turned out to be 95.8%. With `NCCn1ccc2ccc(C(=O)NO)cc2c1=O` [Compound I-207, 2-(2-aminoethyl)-N-hydroxy-1-oxo-1,2-dihydroisoquinoline-7-carboxamide], the inhibition at 0.412 µM amounted to 59.5%. Take `CCN(CC)Cc1cccc(Cn2ccc3ccc(C(=O)NO)cc3c2=O)c1` [Compound I-208, 2-{3-[(diethylamino)methyl]benzyl}-N-hydroxy-1-oxo-1,2-dihydroisoquinoline-7-carboxamide]: the inhibition at 0.412 µM turned out to be 89.9%. On the same count and under the same terms, then `O=C(NO)c1ccc2c(=O)n(Cc3ccc(F)cc3)cnc2c1` [Compound I-209, 3-(4-fluorobenzyl)-N-hydroxy-4-oxo-3,4-dihydroquinazoline-7-carboxamide], with 95.9%. The same measure, in the same setting: then `O=C(NO)c1ccc2c(=O)[nH]c(COc3ccc(-n4ccnc4)cc3)nc2c1` [Compound I-210, N-hydroxy-2-{[4-(1H-imidazol-1-yl)phenoxy]methyl}-4-oxo-3,4-dihydroquinazoline-7-carboxamide], with 80.7%; and `O=C(NO)c1ccc2ccn(Cc3csc4ccc(Cl)cc34)c(=O)c2c1` [Compound I-211, 2-[(5-chloro-1-benzothien-3-yl)methyl]-N-hydroxy-1-oxo-1,2-dihydroisoquinoline-7-carboxamide], with 92.3%; and `Cc1ccc(OCCn2ccc3ccc(C(=O)NO)cc3c2=O)cc1` [Compound I-212, N-hydroxy-2-[2-(4-methylphenoxy)ethyl]-1-oxo-1,2-dihydroisoquinoline-7-carboxamide], with 96.9%. The same measure, in the same setting: the value for `O=C(NO)c1ccc2ccn(CCNS(=O)(=O)c3ccc(Cl)cc3)c(=O)c2c1` [Compound I-213, 2-(2-{[(4-chlorophenyl)sulfonyl]amino}ethyl)-N-hydroxy-1-oxo-1,2-dihydroisoquinoline-7-carboxamide] was 94%; that for `CC(C)c1nc2cc(C(=O)NO)ccc2c(=O)[nH]1` [Compound I-214, N-hydroxy-2-isopropyl-4-oxo-3,4-dihydroquinazoline-7-carboxamide] was 65.8%; that for `O=C(NO)c1ccc2ccn(Cc3cc(C(F)(F)F)ccc3C(F)(F)F)c(=O)c2c1` [Compound I-217, 2-[2,5-bis(trifluoromethyl)benzyl]-N-hydroxy-1-oxo-1,2-dihydroisoquinoline-7-carboxamide] was 99.4%.

Take `CCOCCn1ccc2ccc(C(=O)NO)cc2c1=O` [Compound I-218, 2-(2-ethoxyethyl)-N-hydroxy-1-oxo-1,2-dihydroisoquinoline-7-carboxamide]: the inhibition at 0.412 µM was found to be 90.4%.

As for `O=C(NO)c1ccc2ccn(Cc3ccccc3)c(=O)c2c1` [Compound I-219, 2-benzyl-N-hydroxy-1-oxo-1,2-dihydroisoquinoline-7-carboxamide], the inhibition at 0.412 µM was 94.1%. The same measure, in the same setting: the value for `COc1ccc(-n2ccc3ccc(C(=O)NO)cc3c2=O)cc1` [Compound I-221, N-hydroxy-2-(4-methoxyphenyl)-1-oxo-1,2-dihydroisoquinoline-7-carboxamide] was 88.1%; that for `O=C(NO)c1ccc2ccn(Cc3ccc(F)cc3F)c(=O)c2c1` [Compound I-222, 2-(2,4-difluorobenzyl)-N-hydroxy-1-oxo-1,2-dihydroisoquinoline-7-carboxamide] was 94.6%.

For the molecule `O=C(NO)c1ccc2ccn(Cc3ccc(-n4cncn4)cc3)c(=O)c2c1` [Compound I-223, N-hydroxy-1-oxo-2-[4-(1H-1,2,4-triazol-1-yl)benzyl]-1,2-dihydroisoquinoline-7-carboxamide], the inhibition at 0.412 µM is 94.9%. With `COc1ccc2ccc(OCc3nc4cc(C(=O)NO)ccc4c(=O)[nH]3)cc2c1` [Compound I-225, N-hydroxy-2-{[(7-methoxy-2-naphthyl)oxy]methyl}-4-oxo-3,4-dihydroquinazoline-7-carboxamide], the inhibition at 0.412 µM stood at 40.3%. Take `CCOCCn1cnc2ccc(C(=O)NO)cc2c1=O` [Compound I-226, 3-(2-ethoxyethyl)-N-hydroxy-4-oxo-3,4-dihydroquinazoline-6-carboxamide]: the inhibition at 0.412 µM was determined as 84.5%.

As to `O=C(NO)c1ccc2ccn(CCCOc3ccccc3Cl)c(=O)c2c1` [Compound I-227, 2-[3-(2-chlorophenoxy)propyl]-N-hydroxy-1-oxo-1,2-dihydroisoquinoline-7-carboxamide], the inhibition at 0.412 µM was found to be 93.7%.

On to `COCCOCCn1ccc2ccc(C(=O)NO)cc2c1=O` [Compound I-228, N-hydroxy-2-[2-(2-methoxyethoxy)ethyl]-1-oxo-1,2-dihydroisoquinoline-7-carboxamide], for which the inhibition at 0.412 µM was 86.9%. Still for that read-out and setting: then `COc1ccc(N(CCn2ccc3ccc(C(=O)NO)cc3c2=O)Cc2ccc(Cl)cc2)cc1` [Compound I-229, 2-{2-[(4-chlorobenzyl)(4-methoxyphenyl)amino]ethyl}-N-hydroxy-1-oxo-1,2-dihydroisoquinoline-7-carboxamide], with 83.2%.

By inhibition is commonly meant the drop in the measured response relative to a control, in per cent.

For the origin of these results see US8765773B2, “Substituted hydroxamic acids and uses thereof” (Millennium Pharmaceuticals, Inc., priority 2010, dated 2014).
